Assay results published in patent US20230365899A1, “COMPOSITIONS COMPRISING BLEACHING CATALYST, MANUFACTURING PROCESS THEREOF, AND BLEACHING AND CLEANING AGENT COMPRISING SAME” (WEYLCHEM PERFORMANCE PRODUCTS GMBH, priority 2020, published 2023).
Values belong to the molecule of their own block, whether it stands above or below them.

What was measured:
[1] = Reference granulation: stability of catalyst/PVOH mixture in water and on fluidised bed drying; assay type: physicochemical
Description: Similar to the process described above for granules 1-7, an aqueous solution of [Mn2(μ-O)3(Me3TACN)2](PF6)2·H2O in water and PVOH were mixed together with the other components to make the granule (corn starch and CaSO4). As the solubility of [Mn2(μ-O)3(Me3TACN)2](PF6)2·H2O in water is relatively low (1.08 wt-% in water at 20° C.—see WO2006/125517), a large amount of water needed to be added to obtain a mixture that has enough of the [Mn2(μ-O)3(Me3TACN)2](PF6)2·H2O catalyst to yield a granule comprising 2 wt-% of [Mn2(μ-O)3(Me3TACN)2](PF6)2·H2O (this would equate to 1.85 L of the aqueous solution of [Mn2(μ-O)3(Me3TACN)2](PF6)2·H2O following the same amounts of chemicals as described in the examples above).
Second observation was that the mixture of the [Mn2(μ-O)3(Me3TACN)2](PF6)2·H2O and PVOH in water was not stable.

[2] = cited from earlier work
[3] = BC-1 (tea stain on cotton) bleaching; details: pH 11.5, 1 g/L sodium percarbonate, 40° C., 30 min, Table 3
Description: BC-1 (tea stain on cotton) bleaching experiments were carried similarly as described in WO2014/202954. All bleaching experiments were done in duplication.
BC-1 (tea stain on cotton) bleaching was assessed at pH 11.5 in an aqueous solution containing 1 g/L nonionic formulation (Lutensol A07), 0, 1 and 2 μM [Mn2(μ-O)2(μ-CH3COO)(Me4DTNE)]Cl2), 1 g/L sodium percarbonate at 40° C. for 30 min (reference test).
Similarly, the bleaching activity of granule 9 was assessed using the same protocol, except for dissolving granule 9 in demineralised water yielding the same concentrations of catalyst as used in the reference test.

time the mixture of catalyst and PVOH in solution remained stable ([1]; room temperature): at least 4 days
Compound: CN1CCN(C)CCN(C)CC1.CN1CCN(C)CCN(C)CC1.O=S(=O)([O-])[O-].[Mn+4].[Mn+4].[O-2].[O-2].[O-2] [MnTACNSO4, [Mn2(μ-O)3(Me3TACN)2]SO4]

appearance after fluidised bed drying (catalyst decomposition) ([1]; granulation from dilute aqueous solution with PVOH, corn starch, CaSO4): dark brown granules
stability of mixture of catalyst and PVOH in water ([1]; room temperature): not stable
Compound: CN1CCN(C)CCN(C)CC1.CN1CCN(C)CCN(C)CC1.F[P-](F)(F)(F)(F)F.F[P-](F)(F)(F)(F)F.O.[Mn+4].[Mn+4].[O-2].[O-2].[O-2] [[Mn2(μ-O)3(Me3TACN)2](PF6)2·H2O, [Mn2(μ-O)3(Me3-TACN)2](PF6)2·H2O]
water solubility ([2]; at 20° C.): 10.8 mg/mL
solubility in water ([2]; in water at 20° C., see WO2006/125517): 1.08 wt-%

Compound: CC(=O)[O-].CN1CCN(C)CCN(CCN2CCN(C)CCN(C)CC2)CC1.[Cl-].[Cl-].[Mn+3].[Mn+4].[O-2].[O-2] [[Mn2(μ-O)2(μ-CH3COO)(Me4DTNE)]Cl2]
ΔR* BC-1 bleaching ([3]; 1.0 μM catalyst): 25.2 (0.1)
ΔR* BC-1 bleaching ([3]; 2.0 μM catalyst): 26.3 (0.1)
